Assay results as given in patent US8071810B2, “C5a receptor antagonists” (Jerini AG, priority 2005, dated 2011).

target: T1, human C5a receptor (CD88) (Homo sapiens, UniProt P21730); assay: C5a induced enzyme (glucosaminidase) release assay in RBL cells expressing the human C5a receptor (Example 28); type: cell-based; conditions: RBL cells with human C5aR; read-out: IC50 for the inhibition of C5a induced enzyme release
T1 construct: expressed in transfected cells; host or cells: rat basophilic leukemia (RBL) cells, stably transfected
T1 sequence (P21730 1-350): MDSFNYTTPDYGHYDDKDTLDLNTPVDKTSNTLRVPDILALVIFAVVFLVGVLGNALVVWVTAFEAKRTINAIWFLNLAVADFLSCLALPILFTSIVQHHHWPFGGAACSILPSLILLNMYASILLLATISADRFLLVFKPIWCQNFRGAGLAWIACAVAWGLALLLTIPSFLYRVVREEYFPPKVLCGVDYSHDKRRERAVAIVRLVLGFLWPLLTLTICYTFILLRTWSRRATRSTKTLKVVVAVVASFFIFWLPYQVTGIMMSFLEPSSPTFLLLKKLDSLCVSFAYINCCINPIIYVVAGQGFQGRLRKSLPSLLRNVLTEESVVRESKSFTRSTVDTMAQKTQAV
Protocol: Basophile leukemia cells from rats (RBL), which express the human C5a receptor (CD88), are cultivated in DMEM with 10% fetal calf serum, 100 U/ml penicillin, 100 μg/ml streptomycin and 2 mM glutamin (all constituents are from Biochrome, Berlin) at 37° C. and with 10% CO2 until a confluent layer is obtained. All following details refer to a tissue culture flask with 75 cm^2 surface. The used up medium is removed. The cells are washed with 10 ml PBS (Dulbecco's PBS, Biochrome) and then covered with 3 ml cell dissociation solution (CDS, Sigma). The cells are incubated for 1 minute at room temperature. Then the CDS is removed and the cells are incubated for further 10-15 minutes at 37° C. to detach the cells completely from the flask. 20 μl solution of the compound to be testet are used in the assay. […] The dilution series are prepared in ⅓ or ½ steps. […] The cells are counted and centrifuged (200 g, 10 min). The cell pellet is taken up with pre-heated HAG-CM, and the cell density is adjusted to 2×10^6 Zellen/ml. The cells are incubated for 5 minutes at 37° C. 2.7 μl of a cytochalasin B solution (1000 μg/ml in DMSO, Sigma) are added per ml cell suspension. The Zellen are incubated for another 3 min at 37° C. Then, 75 μl of the cell suspension are added to the 20 μl solution containing the compounds to be tested. […] The cells are again incubated for 10 minutes at 37° C. […] After this the plates are put on ice and centrifuged for 3 minutes at 1200×g and 4° C. […] The plate is incubated for 1 hour at 37° C. […] The IC50 value is determined by solving the four parameter equation y=((A−D)/(1+(x/C)^B))+D.

Question: `CCc1cccc(CC)c1NC(=O)N(Cc1ccc(OC)cc1)c1ccc(C(C)C)cc1` [compound 26, 3-(2,6-diethyl-phenyl)-1-(4-isopropyl-phenyl)-1-(4-methoxy-benzyl)-urea] was tested. Which IC50 did it give?
Answer: 524 nM

Question: For `CCc1c(N)cc(Cl)c(CC)c1NC(=O)N(c1ccc(C(C)C)cc1)[C@@H](C)c1ccc(C)cc1` [compound 73, (S)-3-(3-amino-5-chloro-2,6-diethyl-phenyl)-1-(4-isopropyl-phenyl)-1-(1-p-tolyl-ethyl)-urea], which IC50 is on record?
Answer: 32 nM

Question: With `CCc1c(N)cc(Cl)c(CC)c1NC(=O)N(Cc1ccc(Cl)cc1)c1ccc(NC)cc1` as the molecule, how does the IC50 read?
Answer: 19 nM

Question: Which IC50 does the source give for `CCc1c(N)cc(Cl)c(CC)c1NC(=O)N(Cc1ccc(C)nc1)c1ccc(OC)c2ccccc12` here?
Answer: 55 nM

same assay, conditions: inhibition of C5a induced enzyme release, RBL cells with human C5aR; read-out: Activity-range (antagonistic activity, IC50 enzyme release)

Question: Which IC50 does the source give for `CCc1c(N)cc(Cl)c(CC)c1NC(=O)N(c1ccc(C(C)C)cc1)[C@H]1CCCc2ccccc21` [compound 42, (S)-3-(3-amino-5-chloro-2,6-diethyl-phenyl)-1-(4-isopropyl-phenyl)-1-(1,2,3,4-tetrahydro-naphthaline-1-yl)-urea] here?
Answer: 60 to 200 nM

Question: `CCc1ccc(N)c(CC)c1NC(=O)N(CC1CCCCC1)c1ccc(C(C)C)cc1` [compound 61, 3-(3-amino-2,6-diethyl-phenyl)-1-cyclohexylmethyl-1-(4-isopropyl-phenyl)-urea] was tested. Which IC50 did it give?
Answer: 200 to 5000 nM

Question: For `CCc1c(N)cc(Cl)c(CC)c1NC(=O)N(Cc1ccc(OC)cc1)c1ccc2c(c1)CCC2` [compound 44, 3-(3-amino-5-chloro-2,6-diethyl-phenyl)-1-indane-5-yl-1-(4-methoxy-benzyl)-urea], which IC50 is on record?
Answer: 200 to 5000 nM

Question: For `CCc1ccc(N)c(CC)c1NC(=O)N(Cc1ccc(OC)cc1)c1ccc(C(C)C)cc1` [compound 28, 3-(3-amino-2,6-diethyl-phenyl)-1-(4-isopropyl-phenyl)-1-(4-methoxy-benzyl)-urea], which IC50 is on record?
Answer: 200 to 5000 nM

Question: With `CCc1c(N)cc(Cl)c(CC)c1NC(=O)N(c1ccc(Cl)cc1)[C@@H](C)c1ccc(Cl)cc1` [compound 86, (S)-3-(3-amino-5-chloro-2,6-diethyl-phenyl)-1-(4-chlor-phenyl)-1-[1-(4-chloro-phenyl)-ethyl]-urea] as the molecule, how does the IC50 read?
Answer: 200 to 5000 nM

Question: Which IC50 does the source give for `CCc1c(N)cc(Cl)c(CC)c1NC(=O)N(Cc1ccc(Cl)cc1)c1ccc(OC)c(OC)c1` [compound 114, 3-(3-amino-5-chloro-2,6-diethyl-phenyl)-1-(4-chloro-benzyl)-1-(3,4-dimethoxy-phenyl)-urea] here?
Answer: 200 to 5000 nM

Question: Which IC50 does the source give for `CCc1c(N)cc(Cl)c(CC)c1NC(=O)N(Cc1ccc(Cl)cc1)c1ccc(NC)c2ccccc12` [compound 139, 3-(3-amino-5-chloro-2,6-diethyl-phenyl)-1-(4-chloro-benzyl)-1-(4-methylamino-naphthalin-1-yl)-urea] here?
Answer: 200 to 5000 nM

Question: For `CCc1ccc(N(Cc2ccc(C)nc2)C(=O)Nc2c(CC)ccc(N)c2CC)cc1` [compound 107, 3-(3-amino-2,6-diethyl-phenyl)-1-(4-ethyl-phenyl)-1-(6-methyl-pyridin-3-ylmethyl)-urea], which IC50 is on record?
Answer: 200 to 5000 nM

Question: Which IC50 does the source give for `CCc1c(N)cc(Cl)c(CC)c1NC(=O)N(c1ccc([S+](C)[O-])cc1)[C@@H](C)c1ccc(Cl)cc1` (stereo partly drawn) [compound 95, (S)-3-(3-amino-5-chloro-2,6-diethyl-phenyl)-1-[1-(4-chloro-phenyl)-ethyl]-1-(4-methanesulfinyl-phenyl)-urea] here?
Answer: 200 to 5000 nM

Question: How did the IC50 turn out when `CCc1c(N)cc(Cl)c(CC)c1NC(=O)N(Cc1ccc(Cl)cc1)c1ccc(OC)c2nc(C)c(C)nc12` [compound 130, 3-(3-amino-5-chloro-2,6-diethyl-phenyl)-1-(4-chloro-benzyl)-1-(8-methoxy-2,3-dimethyl-chinoxalin-5-yl)-urea] was run?
Answer: 200 to 5000 nM

Question: For `CCc1c(N)cc(Cl)c(CC)c1NC(=O)N(Cc1ccc(OC)cc1F)c1ccc(C(C)C)cc1` [compound 58, 3-(3-amino-5-chloro-2,6-diethyl-phenyl)-1-(2-fluoro-4-methoxy-benzyl)-1-(4-isopropyl-phenyl)-urea], which IC50 is on record?
Answer: 200 to 5000 nM

Question: How did the IC50 turn out when `CCc1c(N)cc(Cl)c(CC)c1NC(=O)N(c1ccc(OC)c(F)c1)[C@@H](C)c1ccc(Cl)cc1` [compound 94, (S)-3-(3-amino-5-chloro-2,6-diethyl-phenyl)-1-[1-(4-chloro-phenyl)-ethyl]-1-(3-fluoro-4-methoxy-phenyl)-urea] was run?
Answer: < 60 nM

Question: `CCc1c(N)cc(Cl)c(CC)c1NC(=O)N(Cc1ccc(OC(F)(F)F)cc1)c1ccc(C(C)C)cc1` [compound 33, 3-(3-amino-5-chloro-2,6-diethyl-phenyl)-1-(4-isopropyl-phenyl)-1-(4-trifluoromethoxy-benzyl)-urea] was tested. Which IC50 did it give?
Answer: 200 to 5000 nM

Question: How did the IC50 turn out when `CCc1ccc(N(Cc2ccc(C#N)cc2)C(=O)Nc2c(CC)c(N)cc(Cl)c2CC)cc1` [compound 113, 3-(3-amino-5-chloro-2,6-diethyl-phenyl)-1-(4-cyano-benzyl)-1-(4-ethyl-phenyl)-urea] was run?
Answer: 200 to 5000 nM

Question: `CCc1c(N)cc(Cl)c(CC)c1NC(=O)N(c1ccc(OC)cc1)[C@@H](C)c1ccc(Cl)cc1` [compound 92, (S)-3-(3-amino-5-chloro-2,6-diethyl-phenyl)-1-[1-(4-chloro-phenyl)-ethyl]-1-(4-methoxy-phenyl)-urea] was tested. Which IC50 did it give?
Answer: 60 to 200 nM

Question: For `COc1ccc(CN(C(=O)Nc2c(C(C)C)ccc(NC(C)=O)c2C(C)C)c2ccc(C(C)C)cc2)cc1` [compound 27, N-{2,4-diisopropyl-3-[3-(4-isopropyl-phenyl)-3-(4-methoxy-benzyl)-ureido]-phenyl}-acetamide], which IC50 is on record?
Answer: > 5000 nM

Question: Which IC50 does the source give for `CCc1ccc(N(C(=O)Nc2c(CC)c(N)cc(Cl)c2CC)C(C)c2ccc(C)nc2)cc1` (stereo not shown) [compound 123, 3-(3-amino-5-chloro-2,6-diethyl-phenyl)-1-(4-ethyl-phenyl)-1-[1-(6-methyl-pyridin-3-yl)-ethyl]-urea] here?
Answer: 60 to 200 nM

Question: Which IC50 does the source give for `CCc1ccc(N)c(CC)c1NC(=O)N(Cc1ccccc1OC)c1ccc(C(C)C)cc1` [compound 63, 3-(3-amino-2,6-diethyl-phenyl)-1-(4-isopropyl-phenyl)-1-(2-methoxy-benzyl)-urea] here?
Answer: 200 to 5000 nM

Question: With `CCc1c(N)cc(Cl)c(CC)c1NC(=O)N(Cc1ccc(C)nc1)c1ccc(CC(F)(F)F)cc1` [compound 126, 3-(3-amino-5-chloro-2,6-diethyl-phenyl)-1-(6-methyl-pyridin-3-ylmethyl)-1-[4-(2,2,2-trifluoro-ethyl)-phenyl]-urea] as the molecule, how does the IC50 read?
Answer: 60 to 200 nM

Question: With `CCc1c(Cl)cc(NCC(N)=O)c(CC)c1NC(=O)N(Cc1ccc(OC)cc1)c1ccc(C(C)C)cc1` [compound 46, 2-{5-chloro-2,4-diethyl-3-[3-(4-isopropyl-phenyl)-3-(4-methoxy-benzyl)-ureido]-phenylamino}-acetamide] as the molecule, how does the IC50 read?
Answer: 200 to 5000 nM

Question: `CCc1c(N)cc(Cl)c(CC)c1NC(=O)N(Cc1ccc(Cl)cn1)c1ccc(C(C)C)cc1` [compound 105, 3-(3-amino-5-chloro-2,6-diethyl-phenyl)-1-(5-chloro-pyridin-2-ylmethyl)-1-(4-isopropyl-phenyl)-urea] was tested. Which IC50 did it give?
Answer: 200 to 5000 nM

Question: Which IC50 does the source give for `CCc1ccc(N(Cc2ccc(OC)cc2)C(=O)Nc2c(CC)c(N)cc(Cl)c2CC)cc1` [compound 32, 3-(3-amino-5-chloro-2,6-diethyl-phenyl)-1-(4-ethyl-phenyl)-1-(4-methoxy-benzyl)-urea] here?
Answer: 200 to 5000 nM

Question: How did the IC50 turn out when `CCNc1ccc(N(Cc2ccc(Cl)cc2)C(=O)Nc2c(CC)c(N)cc(Cl)c2CC)cc1` [compound 136, 3-(3-amino-5-chloro-2,6-diethyl-phenyl)-1-(4-chloro-benzyl)-1-(4-ethylamino-phenyl)-urea] was run?
Answer: < 60 nM

Question: `CCc1ccc(N(Cc2ccc3c(c2)ncn3C)C(=O)Nc2c(CC)c(N)cc(Cl)c2CC)cc1` [compound 118, 3-(3-amino-5-chloro-2,6-diethyl-phenyl)-1-(4-ethyl-phenyl)-1-(1-methyl-1H-benzoimidazol-5-ylmethyl)-urea] was tested. Which IC50 did it give?
Answer: 200 to 5000 nM

Question: With `CCc1c(N)cc(Cl)c(CC)c1NC(=O)N(CCc1ccc(C)cc1)c1ccc(C(C)C)cc1` [compound 52, 3-(3-amino-5-chloro-2,6-diethyl-phenyl)-1-(4-isopropyl-phenyl)-1-(2-p-tolyl-ethyl)-urea] as the molecule, how does the IC50 read?
Answer: 200 to 5000 nM

Question: For `CCc1c(N)cc(Cl)c(CC)c1NC(=O)N(c1ccc(OC)cc1CO)[C@@H](C)c1ccc(Cl)cc1` [compound 109, (S)-3-(3-amino-5-chloro-2,6-diethyl-phenyl)-1-[1-(4-chloro-phenyl)-ethyl]-1-(2-hydroxymethyl-4-methoxy-phenyl)-urea], which IC50 is on record?
Answer: 200 to 5000 nM

Question: `CCc1ccc(N)c(CC)c1NC(=O)N(c1ccc(C(C)C)cc1)[C@H](C)c1ccc(OC)cc1` [compound 70, (R)-3-(3-amino-2,6-diethyl-phenyl)-1-(4-isopropyl-phenyl)-1-[1-(4-methoxy-phenyl)-ethyl]-urea] was tested. Which IC50 did it give?
Answer: 200 to 5000 nM
